Data as given in patent US4353923A, “Pharmaceutical composition containing a benzofurancarboxamide derivative as the active ingredient” (Kyowa Hakko Kogyo Co., Ltd., priority 1980, dated 1982).

Tests used:
male Wistar rats = test: Anti-inflammatory activity: carrageenin edema method; assay type: in vivo; settings: Rattus norvegicus, po; 150 mg/kg p.o., 3 hours after carrageenin; read-out: Inhibition ratio (paw swelling, vs control)
Protocol: In this experiment, 5 male Wistar rats weighing 140±10 g were used as one group. Sixty minutes after oral administration of each drug to each animal, 0.1 ml of a 1% carrageenin solution as a phlogistic agent was injected into the plantar surface of the right hind paw of the animal to induce inflammation. The volume of the paw was measured before and 3 hours after the injection of the phlogistic agent. Swelling ratio and inhibition ratio in comparison with control group were calculated.

male dd mice [1] = test: Anticonvulsant activity: maximal electroshock convulsion test; assay type: in vivo; settings: Mus musculus, po, 1 h, 60 min after administration, read-out: Maximal electroshock convulsion test, inhibition ratio; for responders at 50 mg/kg: 50 mg/kg p.o.; for responders at 75 mg/kg: 75 mg/kg p.o.; for responders at 100 mg/kg: 100 mg/kg p.o.
From the text: Anticonvulsant activity was examined according to maximal electroshock convulsion test.
In this experiment, 10 male dd mice weighing 23±1 g were used as one group. Each drug was orally administered to the animals. Sixty minutes after the administration, an electric current (2000 V, 50 mA) was applied to both eyes of the mouse for 0.2 second. Drug activity was judged according to whether tonic extensor seizures were observed or not.

male dd mice [2] = test: Analgesic activity: acetic acid writhing; assay type: in vivo; settings: Mus musculus, po, 1 h, acetic acid i.p. after 60 min, read-out: Inhibition ratio (writhes, vs control); for inhibition in vivo at 150 mg/kg: 150 mg/kg p.o.
Protocol: In this experiment, 10 male dd mice weighing 20±1 g were used as one group for examination of analgesic activity. Sixty minutes after oral administration of each drug to each animal, 0.2 ml of a 0.7% acetic acid solution was intraperitoneally administered to the animal. Starting 10 minutes after the administration of acetic acid, the number of writhes occurred in 10 minutes was counted. Average number of writhes and inhibition ratio in comparison with control group were calculated.

in vivo = settings: mouse, po, mice, deaths counted for 7 days
Protocol: In this example, 3-7 male dd mice weighing 20±1 g were used as one group. Each drug was suspended in a 0.3% CMC solution and orally administered. After the administration, number of dead animals was counted for 7 days to determine LD50 value. As the reference drugs, mepirizole and benzydamine hydrochloride were dissolved in water and orally administered. The drugs and the reference drugs were also administered in the same manner as above in Examples 2-5.

male dd mice [3] = test: Muscle relaxant activity: slant test; assay type: in vivo; settings: 5 mice per group
Protocol: (§1) In this example, 5 male dd mice weighing 20±1 g were used as one group. Prior to the experiments, mice were placed on the rod having a diameter of 3 cm and rotating at 5 r.p.m. in the reverse direction of the rotation. […] The drugs were orally administered and the muscle relaxant activity with the passage of time was examined by the following tests.
Slant test: Each mouse was placed on a wire net inclined at an angle of 45° to observe whether it falls or not.
(§2) In each test, the drug was considered to have a muscle relaxant activity when the mouse fell.

male dd mice [4] = test: Muscle relaxant activity: rotating rod test; assay type: in vivo; settings: 5 mice per group
Protocol: as §1
Rotating rod test: The same mouse was placed on the rotating rod to observe whether it falls or not within 2 minutes.
as §2

male dd mice [5] = test: Muscle relaxant activity: traction test; assay type: in vivo; settings: 5 mice per group
From the text: as §1
Traction test: Forefeet of the same mouse were placed on a wire to observe whether it falls or not.
as §2

SMILES	inhibition in vivo at 150 mg/kg (male Wistar rats)	responders at 50 mg/kg (male dd mice [1])	responders at 75 mg/kg (male dd mice [1])	responders at 100 mg/kg (male dd mice [1])	inhibition in vivo at 150 mg/kg (male dd mice [2])	LD50 at 168 h (in vivo)	Number of dropped mice, slant test (male dd mice [3]; 150 mg/kg p.o., 1 hr)	Number of dropped mice, slant test (male dd mice [3]; 150 mg/kg p.o., 2 hr)	Number of dropped mice, slant test (male dd mice [3]; 150 mg/kg p.o., 3 hr)	Number of dropped mice, slant test (male dd mice [3]; 300 mg/kg p.o., 1 hr)	Number of dropped mice, slant test (male dd mice [3]; 300 mg/kg p.o., 2 hr)	Number of dropped mice, slant test (male dd mice [3]; 300 mg/kg p.o., 3 hr)	Number of dropped mice, rotating rod test (male dd mice [4]; 75 mg/kg p.o., 1 hr)	Number of dropped mice, rotating rod test (male dd mice [4]; 75 mg/kg p.o., 2 hr)	Number of dropped mice, rotating rod test (male dd mice [4]; 150 mg/kg p.o., 1 hr)	Number of dropped mice, rotating rod test (male dd mice [4]; 150 mg/kg p.o., 2 hr)	Number of dropped mice, rotating rod test (male dd mice [4]; 150 mg/kg p.o., 3 hr)	Number of dropped mice, traction test (male dd mice [5]; 150 mg/kg p.o., 1 hr)	Number of dropped mice, traction test (male dd mice [5]; 150 mg/kg p.o., 2 hr)	Number of dropped mice, traction test (male dd mice [5]; 150 mg/kg p.o., 3 hr)	other results
Cc1c(C(=O)N(C)C)oc2ccc(Cl)cc12 [Compound (G), 5-Chloro-N,N,3-trimethyl-benzo[b]furan-2-carboxamide]	45.7%	0%	40%	100%	91.4%	> 1000 mg/kg	3 mice	2 mice	2 mice	5 mice	5 mice	5 mice	3 mice	1 mice	5 mice	4 mice	3 mice	3 mice	3 mice	2 mice	Number of dropped mice, rotating rod test (male dd mice [4]; 75 mg/kg p.o., 3 hr): 1 mice; Number of dropped mice, traction test (male dd mice [5]; 75 mg/kg p.o., 1 hr): 1 mice; Number of dropped mice, traction test (male dd mice [5]; 75 mg/kg p.o., 2 hr): 1 mice; Number of dropped mice, traction test (male dd mice [5]; 75 mg/kg p.o., 3 hr): 1 mice
COc1ccc2oc(C(=O)N(C)C)c(C)c2c1 [Compound (F), 5-Methoxy-N,N,3-trimethyl-benzo[b]furan-2-carboxamide]	0%				11%	> 1000 mg/kg				4 mice	2 mice	1 mice			1 mice	0 mice	0 mice	1 mice	0 mice	0 mice	responders at 150 mg/kg (male dd mice [1]; 150 mg/kg p.o.): 30%; responders at 300 mg/kg (male dd mice [1]; 300 mg/kg p.o.): 100%; Number of dropped mice, rotating rod test (male dd mice [4]; 300 mg/kg p.o., 1 hr): 5 mice; Number of dropped mice, rotating rod test (male dd mice [4]; 300 mg/kg p.o., 2 hr): 5 mice; Number of dropped mice, rotating rod test (male dd mice [4]; 300 mg/kg p.o., 3 hr): 3 mice; Number of dropped mice, traction test (male dd mice [5]; 300 mg/kg p.o., 1 hr): 5 mice; Number of dropped mice, traction test (male dd mice [5]; 300 mg/kg p.o., 2 hr): 3 mice; Number of dropped mice, traction test (male dd mice [5]; 300 mg/kg p.o., 3 hr): 1 mice
Cc1c(C(=O)N(C)C)oc2ccc(F)cc12 [Compound (D), 5-Fluoro-N,N,3-trimethyl-benzo[b]furan-2-carboxamide]	34%	10%	40%	90%	95.4%	700 to 1000 mg/kg	4 mice	4 mice	1 mice				3 mice	1 mice	5 mice	5 mice	3 mice	4 mice	3 mice	2 mice	inhibition in vivo at 50 mg/kg (male dd mice [2]; 50 mg/kg p.o.): 44.2%; Number of dropped mice, rotating rod test (male dd mice [4]; 50 mg/kg p.o., 1 hr): 0 mice; Number of dropped mice, rotating rod test (male dd mice [4]; 50 mg/kg p.o., 2 hr): 0 mice; Number of dropped mice, rotating rod test (male dd mice [4]; 50 mg/kg p.o., 3 hr): 0 mice; Number of dropped mice, rotating rod test (male dd mice [4]; 75 mg/kg p.o., 3 hr): 0 mice; Number of dropped mice, rotating rod test (male dd mice [4]; 100 mg/kg p.o., 1 hr): 5 mice; Number of dropped mice, rotating rod test (male dd mice [4]; 100 mg/kg p.o., 2 hr): 3 mice; Number of dropped mice, rotating rod test (male dd mice [4]; 100 mg/kg p.o., 3 hr): 1 mice; Number of dropped mice, traction test (male dd mice [5]; 50 mg/kg p.o., 1 hr): 0 mice; Number of dropped mice, traction test (male dd mice [5]; 50 mg/kg p.o., 2 hr): 0 mice; Number of dropped mice, traction test (male dd mice [5]; 50 mg/kg p.o., 3 hr): 0 mice; Number of dropped mice, traction test (male dd mice [5]; 75 mg/kg p.o., 1 hr): 2 mice; Number of dropped mice, traction test (male dd mice [5]; 75 mg/kg p.o., 2 hr): 1 mice; Number of dropped mice, traction test (male dd mice [5]; 75 mg/kg p.o., 3 hr): 0 mice; Number of dropped mice, traction test (male dd mice [5]; 100 mg/kg p.o., 1 hr): 2 mice; Number of dropped mice, traction test (male dd mice [5]; 100 mg/kg p.o., 2 hr): 1 mice; Number of dropped mice, traction test (male dd mice [5]; 100 mg/kg p.o., 3 hr): 0 mice
